Key:
[1] = system: MOLM-13 cells; test: Western blotting of cellular signaling pathways; assay type: cell-based; conditions: MOLM-13, 24 h, concentration-dependent
Experimental: (§1) Western blotting. Western blotting was performed as described previously. Briefly, cells were lysed after incubation with different concentrations of compounds or control (0.1% DMSO) at the indicated times, samples were denatured at 95 °C for 5 min, and proteins having different molecular weights within each sample were separated by electrophoresis (Bio-Rad, Hercules, CA, USA) on polyacrylamide gels (4–20%, Bio-Rad). Resolved proteins were electrophoretically transferred onto a PVDF membrane and blocked by incubating with 10% w/v non-fat powdered milk dissolved in 1 × Tris-buffered saline-tween 20 (TBST) for 1 h at room temperature prior to incubating overnight with primary antibodies at 4 °C with slight shaking. Chemiluminescence was detected with a ChemiDoc^TM gel imaging system after the membranes have been exposed to ECL substrates (GE Healthcare, PA, USA), and the Image Lab software (Bio-Rad) was used for image capture. The primary antibodies used were: β-Actin (Invitrogen, Cat MA515739, 1:5000), β-Tubulin (Cell Signaling Technology, Cat 2146, 1:1000), AKT (Cell Signaling Technology, Cat 9272, 1:1000), c-MYC (Cell Signaling Technology, Cat 5605, 1:1000), Caspase-3 (Cell Signaling Technology, Cat 9665, 1:1000), Cleaved PARP (Cell Signaling Technology, Cat 5625, 1:1000), ERK1/2 (p44/42 MAPK, Cell Signaling Technology, Cat 4695, 1:1000), GAPDH (Invitrogen, Cat PA1987, 1:1000), MCL-1 (Cell Signaling Technology, Cat 942965, 1:1000), PARP (Cell Signaling Technology, Cat 9532, 1:1000), Phospho-AKT (Ser473) (Cell Signaling Technology, Cat 9271, 1:1000), Phospho-ERK (Thr202/Tyr204) (Cell Signaling Technology, Cat 4370, 1:1000), Phospho-FLT3 (Tyr591) (Cell Signaling Technology, Cat 3461, 1:1000), Phospho-STAT5 (Tyr694) (Cell Signaling Technology, Cat 9359, 1:1000), RNAP II CTD (BioLegend (CA, USA), Cat 664906, 1:1000), RNAP II CTD Phospho-Ser2 (BioLegend, Cat 920204, 1:1000), RNAP II CTD Phospho-Ser5 (Abcam, Cat ab5408, 1:1000), STAT5 (Cell Signaling Technology, Cat 9363, 1:1000), and XIAP (Cell Signaling Technology, Cat 14334, 1:1000). Bands were quantified using ImageJ software (US National Institutes of Health, Bethesda, MD, USA).

[2] = system: MV4-11 cells; test: Western blotting of cellular signaling pathways; assay type: cell-based
Experimental: as §1

[3] = MV4-11, time-course, within 2 h

Cc1cnc(N[C@H]2CC[C@H](N)CC2)nc1-c1cnc2ccc(-c3ccccc3)cn12 [CDDD11-8]
phosphorylation of RNAP II CTD at Ser2 and Ser5 [1]: suppressed | level of p-FLT3 Tyr591 ([2]; MV4-11): reduced | expression of MCL-1 ([2]; MV4-11, 1 µM, 24 h): reduced to almost undetectable levels | expression of XIAP ([2]; MV4-11, 1 µM, 24 h): reduced to almost undetectable levels | expression of c-MYC ([2]; MV4-11, 0.3 and 1 µM, as early as 2 h): completely blocked | reduction of p-RNAP II Ser2 level [2, 3]: approximately 20% | reduction of p-RNAP II Ser5 level [2, 3]: approximately 20%

Reference: PMC8909834, “An Orally Bioavailable and Highly Efficacious Inhibitor of CDK9/FLT3 for the Treatment of Acute Myeloid Leukemia” (Cancers, 2022)
